Laboratory results from patent publication US20220257774A1, “AROMATIC AMINE AR AHD BET TARGETING PROTEIN DEGRADATION CHIMERA COMPOUND AND USE” (HINOVA PHARMACEUTICALS INC., priority 2019, published 2022).

These molecules were tested on LNCaP/AR cells (assay: Inhibition of the proliferation of LNCap/AR cells (CCK-8)). Conditions: 144 h; LNCaP/AR cells, 6 days culture, CCK-8; read-out: LNCap/AR IC50.
Assay type: cell-based
Source text: 1. Biological Assay of the Inhibition on the Proliferation of LNCap/AR Cells
(1) Experimental materials and instruments: LNCaP/AR cell line and 22RV1 cell line (provided by Sichuan Kangcheng Biotechnology Co., Ltd.) Fetal bovine serum FBS (Gibco, Cat. No. 10099-141) 0.01M PBS (Biosharp, Cat. No. 162262) RIPM1640 medium (Hyclone, Cat. No. 308090.01) Penicillin-Streptomycin (Hyclone, Cat. No. SV30010) Cell counting kit-8 (Signalway Antibody, Cat. No. CP002) DMSO (Sigma, Cat. No. D5879) Centrifuge Tube, 15 ml (Excell Bio, Cat. No. CS015-0001) Cell Culture Dish, (Excell Bio, Cat. No. CS016-0128) 96-well cell culture plate (Corning, Cat. No. 3599) Microplate reader (Thermo Multiskan MK3 type)
(2) Experimental Methods:
a. Preparation of Buffer Cell culture medium: RIPM1640 medium, 10% FBS, 1% Pen Strep: PBS buffer: PBS powder was dissolved in 2 L of ultrapure water and sterilized. b. Experimental Procedures 1) LNCaP/AR cells were subcultured in cell culture media, and then the cells in good growth condition were seeded in a 96-well plate at 80 μL/well (1000 cells/well), and cultured overnight in a 37° C., 5% CO2 cell incubator. 2) The drug was prepared into a 10 mM stock solution with dimethyl sulfoxide (DMSO). Prior to use, the stock solution was diluted in a ratio of […] with DMSO, and then diluted at a 3-fold gradient to obtain 9 serial concentrations. Then, each concentration of compound was further diluted in a ratio of 1:200 with the culture medium (to ensure that the DMSO concentration in the culture system was 0.1%), and two wells were set for each concentration. 20 μL of the diluted compound solution was added to the well of the cell culture (with a final concentration of 10 μM, 3.3 μM, 1.1 μM . . . ), and then the plate was gently tapped to thoroughly mix. In addition, the experiment included 3 negative control wells only containing cells and 3 blank control wells only containing culture medium (6 wells were each added with DMSO diluted in a ratio of 1:200 with 20 μL of culture medium). c. Result Detection: 1) After culturing for 6 days, 10 μL of CCK-8 was added to each well, and the plate was further incubated for 1 h in a 37° C., 5% CO2 cell incubator. 2) The absorbance (OD value) was measured at 450 nm with a multifunctional microplate reader. 3) The data was analyzed by the Dose-response-inhibition equation in the software GraphPad Prism5, and the IC50 value was obtained. 2. Biological assay of the inhibition on the proliferation of other drug-resistant prostate cancer cells

| IC50 [nM] | SMILES |
| --- | --- |
| 101 to 500 | Cc1ccc(-c2c(C)noc2C)cc1N(CCCCCOCC(=O)N[C@H](C(=O)N1C[C@H](O)C[C@H]1C(=O)N[C@@H](C)c1ccc(-c2scnc2C)cc1)C(C)(C)C)c1ccc(-n2cnnc2)cc1 [Compound 93, (2S,4R)-1-((S)-2-(2-((5-((4-(1H-1,3,4-triazol-1-yl)phenyl)(5-(3,5-dimethylisoxazol-4-yl)-2-methylphenyl)amino)pentyl)oxy)acetylamino)-3,3-dimethylbutyryl)-4-hydroxy-N—((S)-1-(4-(4-methylthiazol-5-yl)phenyl)ethyl)-pyrrolidinyl-2-formamide] |
| < 100 | Cc1cn(-c2ccc(N(CCCCCOCC(=O)N[C@H](C(=O)N3C[C@H](O)C[C@H]3C(=O)N[C@@H](C)c3ccc(-c4scnc4C)cc3)C(C)(C)C)c3cc(-c4c(C)noc4C)ccc3C)cc2Br)cn1 [Compound 53] |
| 501 to 2000 | Cc1ccc(-c2c(C)noc2C)cc1N(CCCCCOCC(=O)Nc1cccc2c1CN(C1CCC(=O)NC1=O)C2=O)c1ccc(Br)cc1 (stereo not drawn) [Compound 27, 2-((5-((4-Bromophenyl)(5-(3,5-Dimethylisoxazol-4-yl)-2-methylphenyl)amino)pentyl)oxy)-N-(2-(2,6-dioxopiperidin-3-yl)-1-oxoisoindolin-4-yl)acetamide] |
| 501 to 2000 | CC(=O)O[C@@H]1C[C@@H](C(=O)N[C@@H](C)c2ccc(-c3scnc3C)cc2)N(C(=O)[C@@H](NC(=O)COCCCCCN(c2ccc(-n3ccnc3)cc2)c2cc(-c3c(C)noc3C)ccc2C)C(C)(C)C)C1 [Compound 84, (3R,5S)-1-((S)-2-(2-((S-((4-(1H-imidazol-1-yl)phenyl)(5-(3,5-dimethylisoxazol-4-yl)-2-methylphenyl)amino)pentyl)oxy)acetylamino)-3,3-dimethylbutyryl)-5-(((S)-1-(4-(4-methylthiazol-5-yl)phenyl)ethyl)aminoformyl)pyrrolidinyl-3-yl acetate] |
| 101 to 500 | Cc1cn(-c2ccc(N(CCCCCOCC(=O)N[C@H](C(=O)N3C[C@H](O)C[C@H]3C(=O)N[C@@H](C)c3ccc(-c4scnc4C)cc3)C(C)(C)C)c3cc(-c4c(C)noc4C)ccc3C)cc2)cn1 [Compound 95, (2S,4R)-1-((S)-2-(2-((5-((5-(3,5-dimethylisoxazol-4-yl)-2-methylphenyl)(4-(4-methyl-1H-imidazol-1-yl)phenyl)amino)pentyl)oxy)acetylamino)-3,3-dimethylbutyryl)-4-hydroxy-N—((S)-1-(4-(4-methylthiazol-5-yl)phenyl)ethyl)-pyrrolidinyl-2-formamide] |
| > 2000 | Cc1ccc(-c2c(C)noc2C)cc1N(CCC1CCN(CC(=O)N[C@H](C(=O)N2C[C@H](O)C[C@H]2C(=O)N[C@@H](C)c2ccc(-c3scnc3C)cc2)C(C)(C)C)CC1)c1ccc(-n2ccnc2)c(Br)c1 [Compound 24] |
| > 2000 | CC(=O)O[C@@H]1C[C@@H](C(=O)N[C@@H](C)c2ccc(-c3scnc3C)cc2)N(C(=O)[C@@H](NC(=O)COCCOCCN(c2ccc(-n3ccnc3)c(Br)c2)c2cc(-c3c(C)noc3C)ccc2C)C(C)(C)C)C1 [Compound 54] |
| 501 to 2000 | CC(=O)O[C@@H]1C[C@@H](C(=O)N[C@@H](C)c2ccc(-c3scnc3C)cc2)N(C(=O)[C@@H](NC(=O)COCCCCCN(c2ccc(-n3ccnc3)c(Br)c2)c2cc(-c3c(C)noc3C)cnc2C)C(C)(C)C)C1 [Compound 48, (3R,5S)-1-((S)-2-(2-((5-((3-bromo-4-(1H-imidazol-1-yl)phenyl)(5-(3,5-dimethylisoxazol-4-yl)-2-methylpyridin-3-yl)amino)pentyl)oxy)acetamido)-3,3-dimethylbutanol)-5-((S)-1-(4-methylthiazol-5-yl)phenyl)ethyl)carbamoyl)pyrrolidine-3-yl acetate] |
| > 2000 | Cc1ccc(-c2c(C)noc2C)cc1N(CCCCCOCC(=O)Nc1cccc2c1CN(C1CCC(=O)NC1=O)C2=O)c1ccc(-n2ccnc2)c(Br)c1 (stereo not drawn) [Compound 25, 2-((5-((3-Bromo-4-(1H-imidazol-1-yl)phenyl)(5-(3,5-Dimethylisoxazol-4-yl)-2-methylphenyl)amino)pentyl)oxy)-N-(2-(2,6-dioxopiperidin-3-yl)-1-oxoisoindol-4-yl)acetamide] |

The next lines start with the molecule.

| SMILES | IC50 [nM] |
| --- | --- |
| CC(=O)O[C@@H]1C[C@@H](C(=O)N[C@@H](C)c2ccc(-c3scnc3C)cc2)N(C(=O)[C@@H](NC(=O)COCCCCCCCN(c2ccc(-n3ccnc3)cc2)c2cc(-c3c(C)noc3C)ccc2C)C(C)(C)C)C1 [Compound 7] | > 2000 |
| CC(=O)O[C@@H]1C[C@@H](C(=O)N[C@@H](C)c2ccc(-c3scnc3C)cc2)N(C(=O)[C@@H](NC(=O)COCCCCN(c2ccc(-n3ccnc3)cc2)c2cc(-c3c(C)noc3C)ccc2C)C(C)(C)C)C1 [Compound 86, (3R,5S)-1-((S)-2-(2-(4-((4-(1H-imidazol-1-yl)phenyl)(5-(3,5-dimethylisoxazol-4-yl)-2-methylphenyl)amino)butoxy)acetamido)-3,3-dimethylbutyryl)-5-((S)-1-(4-(4-methylthiazol-5-yl)phenyl)ethyl)carbamoyl)pyrrolidine-3-yl acetate] | 101 to 500 |
| CC(=O)O[C@@H]1C[C@@H](C(=O)N[C@@H](C)c2ccc(-c3scnc3C)cc2)N(C(=O)[C@@H](NC(=O)COCCCCCCN(c2ccc(-n3ccnc3)cc2)c2cc(-c3c(C)noc3C)ccc2C)C(C)(C)C)C1 [Compound 5, (3R,5S)-1-((S)-2-(2-((6-((4-(1H-imidazol-1-yl)phenyl)(5-(3,5-Dimethylisoxazol-4-yl)-2-methylphenyl)amino)n-hexyl)oxy)acetylamino)-3,3-dimethylbutyryl)-5-(((S)-1-(4-(4-methylthiazol-5-yl)phenyl)ethyl)formylamino)pyrrolidinyl-3-acetate] | > 2000 |

Same assay, conditions: LNCaP/AR cells, 6 days culture, CCK-8; read-out: LNCap/AR IC50

| SMILES | IC50 [nM] |
| --- | --- |
| CC(=O)O[C@@H]1C[C@@H](C(=O)N[C@@H](C)c2ccc(-c3scnc3C)cc2)N(C(=O)[C@@H](NC(=O)CN2CCC(CCN(c3ccc(-n4ccnc4)c(Br)c3)c3cc(-c4c(C)noc4C)ccc3C)CC2)C(C)(C)C)C1 [Compound 23, (3R,5S)-1-((S)-2-(2-(4-(2-((3-Bromo-4-(1H-imidazol-1-yl)phenyl)(5-(3,5-dimethylisoxazol-4-yl)-2-methylphenyl)amino)ethyl)piperidin-1-yl)acetamido)-3,3-dimethylbutanol)-5-((S)-1-(4-methylthiazol-5-yl)phenyl)ethyl)carbamoyl)pyrrolidine-3-yl acetate] | > 2000 |
| CCn1nc(C)c(-c2ccc(C)c(N(CCCCCOCC(=O)N[C@H](C(=O)N3C[C@H](OC(C)=O)C[C@H]3C(=O)N[C@@H](C)c3ccc(-c4scnc4C)cc3)C(C)(C)C)c3ccc(C#N)c(Cl)c3)c2)c1C [Compound 82, (3R,5S)-1-((S)-2-(2-((5-((3-chloro-4-cyanophenyl)(5-(1-ethyl-3,5-dimethyl-1H-pyrazol-4-yl)-2-methylphenyl)amino)pentyl)oxy)acetamido)-3,3-dimethylbutyryl)-5-((S)-1-(4-methylthiazol-5-yl)phenyl)ethyl)carbamoyl)pyrrolidine-3-yl acetate] | 101 to 500 |

Same assay, conditions: LNCaP/AR, 144 h, read-out: LNCap/AR IC50

| SMILES | IC50 [nM] |
| --- | --- |
| Cc1ccc(-c2c(C)noc2C)cc1N(CCCCCOCC(=O)N[C@H](C(=O)N1C[C@H](O)C[C@H]1C(=O)N[C@@H](C)c1ccc(-c2scnc2C)cc1)C(C)(C)C)c1ccc(C#N)c(Cl)c1 [Compound 58] | 101 to 500 |
